Source: the NIST ThermoML archive (doi:10.1016/j.jct.2016.06.017)

What was measured:
[1] = 100 kPa, Liquid, Frequency=0.01 MHz, Alternating current cell with electrodes
[2] = xn = mol fraction of the nth substance listed; details: 100 kPa, Liquid, Frequency=0.01 MHz, Alternating current cell with electrodes

CCCCn1cc[n+](C)c1.N#CN=C=[N-] [1-butyl-3-methylimidazolium dicyanamide]
[1]
Details	electrical conductivity [S/m]
273.15 K	0.383
283.15 K	0.636
293.15 K	0.972
298.15 K	1.17
303.15 K	1.39
313.15 K	1.89
323.15 K	2.46

CCCCn1cc[n+](C)c1.N#CN=C=[N-] [1-butyl-3-methylimidazolium dicyanamide] + O=C1CCCO1
[2], x1 = 1
Details	electrical conductivity [S/m]
273.15 K	0.383
283.15 K	0.636
293.15 K	0.972
298.15 K	1.17
303.15 K	1.39
313.15 K	1.89
323.15 K	2.46

O=C1CCCO1 [γ-butyrolactone] + CCCCn1cc[n+](C)c1.N#CN=C=[N-]
electrical conductivity [S/m], [2]
Details	x2 = 0.0504	x2 = 0.1002	x2 = 0.2002	x2 = 0.2984	x2 = 0.4005	x2 = 0.4954	x2 = 0.6957	x2 = 0.8871
273.15 K	1.05	1.4	1.518	1.35	1.13	0.924	0.639	0.454
283.15 K	1.27	1.71	1.918	1.77	1.54	1.32	0.968	0.736
293.15 K	1.5	2.03	2.35	2.24	2.012	1.78	1.37	1.09
298.15 K	1.62	2.2	2.58	2.49	2.27	2.03	1.606	1.3
303.15 K	1.74	2.38	2.814	2.75	2.53	2.29	1.85	1.53
313.15 K	1.98	2.73	3.301	3.29	3.101	2.87	2.401	2.04
323.15 K	2.23	3.09	3.81	3.87	3.707	3.48	3.009	2.625
